Assay results reported in patent US20250154089A1, “METHODS FOR PREPARING OXYRESVERATROL AND DERIVATIVES THEREOF” (Caliway Biopharmaceuticals Co., Ltd., priority 2023, published 2025).

Test system: melanin production induced by α-MSH
Assay: Inhibition of melanin production induced by α-MSH
Format: cell-based
Details: for Melanin content (%), Mean: α-MSH 0.1 μM 24 hours + TA treat 24 hours, 0.2% DMSO, α-MSH group = 100.0
From the text: This example explores the bioactivity of the synthesized oxyresveratrol compound in inhibiting melanin production as relative to commercial oxyresveratrol extracted from plant sources.

Structure (SMILES) | Melanin content (%), Mean (TA conc. 32 μM) [%] | Melanin content (%), Mean (TA conc. 128 μM) [%] | Inhibitory activity on melanin production compared with the commercial material (in words) (e.g., at 128 μM) | Inhibition of melanin production induced by α-MSH (in words) (32 and 128 μM)
Oc1cc(O)cc(/C=C/c2ccc(O)cc2O)c1 [Synthetic, oxyresveratrol] | 75.7 | 38.5 | greater inhibitory activity | –
Oc1cc(O)cc(/C=C/c2ccc(O)cc2O)c1 [Commercial, oxyresveratrol] | 77.4 | 45.5 | – | inhibited melanin production
